In series [1] the test system is Nrf2 transcription factor activation (Nrf2/Keap1/ARE). Nature of the series: Nrf2-responsive transient DLR reporter gene assay (pGL4.37 + pRL-CMV) in ZFL cells. It is filed as cell-based, zebrafish (Danio rerio). The note with it: for pEC50: 4PL regression, normalized induction. The source says: A transient reporter gene assay for the assessment of oxidative stress in the ZFL cell line had been described previously (Lungu-Mitea and Lundqvist [2020]), and was applied here in an identical manner. Please consult the respective chapter within the SI for more details.
ZFL cells were also transiently co-transfected with the Nrf2-responsive reporter vector pGL4.37 and the normalization vector pRL-CMV, as described in (Lungu-Mitea and Lundqvist [2020]). The transcription factor Nrf2 is a central regulator of the oxidative stress response pathways (Nrf2/Keap1/ARE) (Itoh et al. [2004]) and a keystone in the regulation of oxidative stress detoxification, metabolism, and induction of related phase-II enzymes (e.g., GST, NQO1, HO-1). Detailed descriptions, results, and discussion are given in the respective section of the SI (p. 12–14; Figs. S10 + 11, Table S4). […]
132 To undermine the “maisonette” squelching hypothesis, Comptox data regarding the induction of cellular
133 stress response pathways were backed up by empirical data in ZFL cell lines. Therefore, ZFL cells were
134 transiently co-transfected with the Nrf2-responsive reporter vector pGL4.37 and the normalization
135 vector pRL-CMV, as described in (Lungu-Mitea and Lundqvist 2020). Experimental design, data
136 handling, and statistical evaluation were identical to procedures described in the main manuscript. The
137 transcription factor Nrf2 is a central regulator of the oxidative stress response pathways
138 (Nrf2/Keap1/ARE) (Itoh et al. 2004) and a keystone in the regulation of oxidative stress detoxification,
139 metabolism, and induction of related phase-II enzymes (e.g. GST, NQO1, HO-1).
141 S10). […] Statistically
143 of the Nrf2-related luciferase signal.
144 optical inspection under the microscope ( not illustrated), leading to artefact effects in the luciferase
145 measurement. Therefore, specific points were excluded from the analysis and deemphasized in fig. S10.
146 Possibly, compound aggregation led to a flattening of the cytotoxicity curve in fig. S10. Compound
147 aggregation at higher molar concentratio ns has been discussed in (Owen et al. 2012, 2014) .
148 Concentrations up to cytotoxicity were used to derive a sigmoidal concentration -response relationship
149 (fig. S11). The computed parameters are depicted in tab. S4.
On the technique in general: A reporter such as luciferase makes a cellular process visible.

For series [2], the system named is FOS (FBJ murine osteosarcoma viral oncogene homolog). Further details: method as in ToxCast database, CompTox dashboard. The note with it: ATG_AP_1_CIS_up; ref ToxCast database, CompTox dashboard; cited from earlier work.
Series [3] relates to AHR (aryl hydrocarbon receptor). More on the design: method as in ToxCast database, CompTox dashboard. The note with it: ATG_Ahr_CIS_up; ref ToxCast database, CompTox dashboard; cited from earlier work.
The target of the next series is HDAC (hydrolase). Further details: method as in ToxCast database, CompTox dashboard. The note with it: TOX21_HDAC_Inhibition; ref ToxCast database, CompTox dashboard; cited from earlier work.
The test system of series [4] is PPARG (peroxisome proliferator-activated receptor gamma). More on the design: method as in ToxCast database, CompTox dashboard. The note with it: ATG_PPARg_TRANS_up; ref ToxCast database, CompTox dashboard; cited from earlier work.
The target of series [5] is ESR1 (estrogen receptor 1). Further details: method as in ToxCast database, CompTox dashboard. The note with it: ATG_ERE_CIS_up; ref ToxCast database, CompTox dashboard; cited from earlier work.
Another series relates to ARE (channel 2). Further details: method as in ToxCast database, CompTox dashboard. The note with it: TOX21_ARE_BLA_Agonist_ch2; ref ToxCast database, CompTox dashboard; cited from earlier work.
Series [6] has as its system NR1I2 (nuclear receptor subfamily 1, group I, member 2). Further details: method as in ToxCast database, CompTox dashboard. The following applies: ATG_PXRE_CIS_up; ref ToxCast database, CompTox dashboard; cited from earlier work.
The test system of series [7] is AHR (aryl hydrocarbon receptor). Further details: method as in ToxCast database, CompTox dashboard. The note with it: TOX21_AhR_LUC_Agonist; ref ToxCast database, CompTox dashboard; cited from earlier work.

pEC50: −log10 of the molar value. Read-outs that look alike come from different tables or passages of the source.

By pEC50 is commonly meant −log10 of the EC50, conventionally taken in molar units. Broadly, the AC50 is the concentration giving half of the maximal activity seen.

As to `O=c1cc(-c2ccccc2)oc2ccc3ccccc3c12` [BNF, β-naphthoflavone], the “LOEC of Nrf2 induction” value in series [1] (BNF exposure range of 3 pM to 1 mM, pGL4.37 + pRL-CMV) was 30 nM. Moreover, the “Slope (CI) of 4PL regression” value in series [1] (BNF, pGL4.37 + pRL-CMV) is […]. In series [1] (BNF, pGL4.37 + pRL-CMV (Fig. S10)), the “concentration of maximal Nrf2 induction” value was found to be […]. Also, the pEC50 in series [1] (BNF, pGL4.37 + pRL-CMV) was 8.01; in series [1] (Danio rerio, BNF, pGL4.37 + pRL-CMV), 8.01. For the same compound, the “maximal Nrf2 induction” value in series [1] (at 100 nM BNF, pGL4.37 + pRL-CMV) was 3.4 fold. Also, the AC50 in series [2] is 156 nM; in [3], […]; at HDAC (hydrolase), 513 nM; in series [4], 750 nM; in [5], 1060 nM; in the series on ARE (channel 2), 1220 nM. For the same compound, the values for the AC50 in series [6] and in series [7] were 2240 nM and […], respectively.

The values above are taken from paper PMC10406726, “Development, scrutiny, and modulation of transient reporter gene assays of the xenobiotic metabolism pathway in zebrafish hepatocytes” (Cell Biology and Toxicology, 2021).
